Measurements taken from patent US20230143604A1, “QW DOSING OF GIP RECEPTOR AGONIST PEPTIDE COMPOUNDS AND USES THEREOF” (TAKEDA PHARMACEUTICAL COMPANY LIMITED, priority 2020, published 2023).
Starred links: 1 amine or outer side, 2 acyl side, 3 side chain; linkers in the order of their positions; H or OH if unused. Non-standard residues stand in square brackets, D forms with d. Residues, ends and D or L forms follow the SMILES beside them. Groups on a side chain read outwards from the residue. *: point of attachment. C18 diacid = O=C(O)CCCCCCCCCCCCCCCCC(=O)*; γGlu = O=C(O)[C@H](CCC(=O)[*:2])N[*:1]; NMeY = CN[C@@H](Cc1ccc(O)cc1)C(=O)O; AEEA = NCCOCCOCC(=O)O; Aib = CC(C)(N)C(=O)O

Assay: physchem
Procedure, shortened: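 3 mg of peptide treated with 100 μL portions of 200 mM phosphate buffer pH 7.4, sonicating/vortexing up to 1 min, with further buffer added until fully dissolved. Solubility then quantified by HPLC.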

SMILES	solubility (pH 7.4) [mg/mL]	solubility (pH 7.4, aqueous buffer) [mg/mL]	solubility (pH 7.4, aqueous buffer, pH 7.4 Phosphate Buffer - Solubility, 200 mM Phosphate buffer pH 7.4) [mg/mL]	solubility (pH 7.4, solubility in phosphate buffer at pH 7.4, 200 mM phosphate buffer pH 7.4) [mg/mL]
CC[C@H](C)[C@H](NC(=O)[C@H](CCCCN)NC(=O)[C@H](CC(=O)O)NC(=O)[C@H](CC(C)C)NC(=O)[C@H](C)NC(=O)[C@@H](NC(=O)[C@H](CO)NC(=O)[C@H](Cc1ccc(O)cc1)NC(=O)[C@H](CC(=O)O)NC(=O)[C@H](CO)NC(=O)[C@@H](NC(=O)[C@H](Cc1ccccc1)NC(=O)[C@@H](NC(=O)CNC(=O)[C@H](CCC(=O)O)NC(=O)C(C)(C)NC(=O)[C@H](Cc1ccc(O)cc1)NC)[C@@H](C)O)[C@@H](C)CC)[C@@H](C)CC)C(=O)N[C@@H](C)C(=O)N[C@@H](CCC(N)=O)C(=O)NC(C)(C)C(=O)N[C@@H](CCCCNC(=O)COCCOCCNC(=O)COCCOCCNC(=O)CC[C@H](NC(=O)CC[C@H](NC(=O)CCCCCCCCCCCCCCCCC(=O)O)C(=O)O)C(=O)O)C(=O)N[C@@H](Cc1ccccc1)C(=O)N[C@H](C(=O)N[C@@H](CCC(=O)O)C(=O)N[C@@H](Cc1c[nH]c2ccccc12)C(=O)N[C@@H](CC(C)C)C(=O)N[C@@H](CC(C)C)C(=O)N[C@@H](C)C(=O)N[C@@H](CCC(N)=O)C(=O)N[C@@H](CCCNC(=N)N)C(=O)NCC(=O)O)C(C)C [Compound 173] (H-[NMeY][Aib]EGTFISDYSIALDKIAQ[Aib]K([AEEA-AEEA-γGlu-γGlu-C18 diacid])FVEWLLAQRG-OH)	≥ 15	≥ 30		
CC[C@H](C)[C@H](NC(=O)[C@H](CO)NC(=O)[C@H](Cc1ccc(O)cc1)NC(=O)[C@H](CC(=O)O)NC(=O)[C@H](CO)NC(=O)[C@@H](NC(=O)[C@H](Cc1ccccc1)NC(=O)[C@@H](NC(=O)CNC(=O)[C@H](CCC(=O)O)NC(=O)C(C)(C)NC(=O)[C@H](Cc1ccc(O)cc1)NC)[C@@H](C)O)[C@@H](C)CC)C(=O)N[C@@H](C)C(=O)N[C@@H](CC(C)C)C(=O)N[C@@H](CC(=O)O)C(=O)N[C@@H](CCCCN)C(=O)N[C@@H](C)C(=O)N[C@@H](C)C(=O)N[C@@H](CCC(N)=O)C(=O)NC(C)(C)C(=O)N[C@@H](CCCCNC(=O)COCCOCCNC(=O)COCCOCCNC(=O)CC[C@H](NC(=O)CC[C@H](NC(=O)CCCCCCCCCCCCCCCCC(=O)O)C(=O)O)C(=O)O)C(=O)N[C@@H](Cc1ccccc1)C(=O)N[C@H](C(=O)N[C@@H](CCC(=O)O)C(=O)N[C@@H](Cc1c[nH]c2ccccc12)C(=O)N[C@@H](CC(C)C)C(=O)N[C@@H](CC(C)C)C(=O)N[C@@H](C)C(=O)N[C@@H](CCC(N)=O)C(=O)N[C@@H](CCCNC(=N)N)C(=O)NCC(=O)O)C(C)C [Compound 174] (H-[NMeY][Aib]EGTFISDYSIALDKAAQ[Aib]K([AEEA-AEEA-γGlu-γGlu-C18 diacid])FVEWLLAQRG-OH)	≥ 15	≥ 30		
CC[C@H](C)[C@H](NC(=O)[C@H](CCCCN)NC(=O)[C@H](CC(=O)O)NC(=O)[C@H](CC(C)C)NC(=O)[C@H](C)NC(=O)[C@@H](NC(=O)[C@H](CO)NC(=O)[C@H](Cc1ccc(O)cc1)NC(=O)[C@H](CC(=O)O)NC(=O)[C@H](CO)NC(=O)[C@@H](NC(=O)[C@H](Cc1ccccc1)NC(=O)[C@@H](NC(=O)CNC(=O)[C@H](CCC(=O)O)NC(=O)C(C)(C)NC(=O)[C@H](Cc1ccc(O)cc1)NC)[C@@H](C)O)[C@@H](C)CC)[C@@H](C)CC)C(=O)N[C@@H](C)C(=O)N[C@@H](CCC(N)=O)C(=O)NC(C)(C)C(=O)N[C@@H](CCCCNC(=O)COCCOCCNC(=O)COCCOCCNC(=O)CC[C@H](NC(=O)CC[C@H](NC(=O)CCCCCCCCCCCCCCCCC(=O)O)C(=O)O)C(=O)O)C(=O)N[C@@H](Cc1ccccc1)C(=O)N[C@H](C(=O)N[C@@H](CC(N)=O)C(=O)N[C@@H](Cc1c[nH]c2ccccc12)C(=O)N[C@@H](CC(C)C)C(=O)N[C@@H](CC(C)C)C(=O)N[C@@H](C)C(=O)N[C@@H](CCC(N)=O)C(=O)N[C@@H](CCCNC(=N)N)C(=O)NCC(=O)O)C(C)C [Compound 175] (H-[NMeY][Aib]EGTFISDYSIALDKIAQ[Aib]K([AEEA-AEEA-γGlu-γGlu-C18 diacid])FVNWLLAQRG-OH)	≥ 15	≥ 30		
CC[C@H](C)[C@H](NC(=O)[C@H](CO)NC(=O)[C@H](Cc1ccc(O)cc1)NC(=O)[C@H](CC(=O)O)NC(=O)[C@H](CO)NC(=O)[C@@H](NC(=O)[C@H](Cc1ccccc1)NC(=O)[C@@H](NC(=O)CNC(=O)[C@H](CCC(=O)O)NC(=O)C(C)(C)NC(=O)[C@H](Cc1ccc(O)cc1)NC)[C@@H](C)O)[C@@H](C)CC)C(=O)N[C@@H](C)C(=O)N[C@@H](CC(C)C)C(=O)N[C@@H](CC(=O)O)C(=O)N[C@@H](CCCCN)C(=O)N[C@@H](C)C(=O)N[C@@H](C)C(=O)N[C@@H](CCC(N)=O)C(=O)NC(C)(C)C(=O)N[C@@H](CCCCNC(=O)COCCOCCNC(=O)COCCOCCNC(=O)CC[C@H](NC(=O)CC[C@H](NC(=O)CCCCCCCCCCCCCCCCC(=O)O)C(=O)O)C(=O)O)C(=O)N[C@@H](Cc1ccccc1)C(=O)N[C@H](C(=O)N[C@@H](CC(N)=O)C(=O)N[C@@H](Cc1c[nH]c2ccccc12)C(=O)N[C@@H](CC(C)C)C(=O)N[C@@H](CC(C)C)C(=O)N[C@@H](C)C(=O)N[C@@H](CCC(N)=O)C(=O)N[C@@H](CCCNC(=N)N)C(=O)NCC(=O)O)C(C)C [Compound 176] (H-[NMeY][Aib]EGTFISDYSIALDKAAQ[Aib]K([AEEA-AEEA-γGlu-γGlu-C18 diacid])FVNWLLAQRG-OH)	≥ 15	≥ 30		
CC[C@H](C)[C@H](NC(=O)[C@H](CCCNC(=N)N)NC(=O)[C@H](CC(=O)O)NC(=O)[C@H](CC(C)C)NC(=O)[C@H](C)NC(=O)[C@@H](NC(=O)[C@H](CO)NC(=O)[C@H](Cc1ccc(O)cc1)NC(=O)[C@H](CC(=O)O)NC(=O)[C@H](CO)NC(=O)[C@@H](NC(=O)[C@H](Cc1ccccc1)NC(=O)[C@@H](NC(=O)CNC(=O)[C@H](CCC(=O)O)NC(=O)C(C)(C)NC(=O)[C@H](Cc1ccc(O)cc1)NC)[C@@H](C)O)[C@@H](C)CC)[C@@H](C)CC)C(=O)N[C@@H](C)C(=O)N[C@@H](CCC(N)=O)C(=O)N[C@@H](CCC(N)=O)C(=O)N[C@@H](CCCCNC(=O)COCCOCCNC(=O)COCCOCCNC(=O)CC[C@H](NC(=O)CC[C@H](NC(=O)CCCCCCCCCCCCCCCCC(=O)O)C(=O)O)C(=O)O)C(=O)N[C@@H](Cc1ccccc1)C(=O)N[C@H](C(=O)N[C@@H](CC(N)=O)C(=O)N[C@@H](Cc1c[nH]c2ccccc12)C(=O)N[C@@H](CC(C)C)C(=O)N[C@@H](CC(C)C)C(=O)N[C@@H](C)C(=O)N[C@@H](CCC(N)=O)C(=O)N[C@@H](CO)C(=O)N1CCC[C@H]1C(=O)N[C@@H](CO)C(=O)N[C@@H](CO)C(=O)NCC(=O)N[C@@H](C)C(=O)N1CCC[C@H]1C(=O)N1CCC[C@H]1C(=O)N1CCC[C@H]1C(=O)N[C@@H](CO)C(=O)O)C(C)C [Compound 177] (H-[NMeY][Aib]EGTFISDYSIALDRIAQQK([AEEA-AEEA-γGlu-γGlu-C18 diacid])FVNWLLAQSPSSGAPPPS-OH)			≥ 30	≥ 15
